Results: patent publication US20140275128A1, “METHOD OF PROVIDING OCULAR NEUROPROTECTION” (INOTEK PHARMACEUTICALS CORPORATION, priority 2013, published 2014)

Columns and labels:
[1] = tested on: retinal ganglion cells; assay: Ischemia-induced retinal ganglion cell death in Long-Evans rats (high IOP insult, histology); assay type: in vivo; conditions: topical; for percent of RGC protected from ischemic insult (FIG. 4): two drops before 60 min ischemia at 110 mmHg, Compound A 2.5% ophthalmic suspension or 0.2% brimonidine tartrate, histology at 7 days; for retinal thinning of inner retina (GCL, IPL) after high IOP (FIG. 2): versus healthy contralateral eye, 7 days
Experimental: Treatment groups of 10 male Long Evans rats, six to eight weeks of age, were anesthetized by i.p. injection of a combination of ketamine (80 mg/kg) and xylazine (8 mg/kg). Additional ketamine was administered as needed to maintain appropriate anesthetic depth, and body temperature was maintained by use of an isothermal pad placed under the animal. Once under anesthesia, topical anesthetic (0.5% proparacaine hydrochloride, single drop) was applied to the cornea of the right eye. […] Several minutes after the second treatment, the anterior chamber of the right eye was cannulated with a 30G needle connected to an elevated reservoir of sterile Hanks balanced salt solution with a fluid level 59 inches above eye level (equivalent to a hydrostatic pressure of 110 mmHg) behind a closed stopcock. Five minutes after the second treatment (fifteen minutes after application of topical anesthetic), the stopcock was opened, and the rise in pressure was directly visualized by inflation of the globe. Animals that suffered an injury to the iris or cornea (beyond the single entry point) were excluded from the study. Sixty minutes after inducing the rise in pressure, the ischemic injury was terminated by closing the stopcock and removing the cannula. The needle entry wound was sealed with veterinary tissue adhesive and the animals allowed to recover from anesthesia before being returned to housing.
Seven days after ischemic injury animals were sacrificed by CO2 inhalation and globes dissected with the proximal optic nerves intact. The anterior chamber was removed, and the eyes were fixed for 30 minutes in 4% paraformaldehyde/PBS, followed by overnight incubation in 30% sucrose. Fixed eyes were trimmed of additional connective tissue and cut along a sagittal plane to generate a flat face for embedding, and the exposed retinal edge was attached to the sclera with tissue adhesive. The eye was infiltrated with increasing strengths of JB-4 embedding medium (glycol methacrylate; GMA), followed by embedding in JB-4 at 4° C. for sagittal sectioning. Optic nerves were co-embedded with their paired retina for transverse sectioning. Embedded tissues were sectioned through or near the optic nerve head at a thickness of 2 μm, and collected on slides for further analysis.
For histological analysis of retinas, sections were stained with 1% toluidine blue in absolute ethanol for 40 seconds, and cover slipped for microscopic examination. Images were captured using cellSens Dimension software on an Olympus BX61 upright microscope with a motorized stage, using a 20× objective and a resolution of 169 nm/pixel, and stitched together using the multiple image alignment procedure of the software. Five locations were chosen at random from across the retina, avoiding areas of extreme curvature or extreme histological disruption, and the thickness of the retinal layers was assessed, as follows: ganglion cells (GCL; count of large, round nuclei in layer near retinal surface in 100 μm region centered on chosen location), inner plexiform layer (IPL; distance from nuclei in ganglion cell layer to nuclei in inner nuclear layer), inner nuclear layer (INL), outer plexiform layer (OPL; distance from nuclei in INL to nuclei in outer nuclear layer), outer nuclear layer (ONL), and total retinal thickness (TR distance from retinal surface above nerve fiber layer to edge of ONL). […]

[2] = molecular target: T1, A2A adenosine receptor (Homo sapiens, UniProt P29274); assay: Adenosine A2A receptor binding, A1 > A2A selectivity; conditions: ratio Ki A2A / Ki A1
T1 construct: expressed in transfected cells; host or cells: CHO cells
Experimental: The cell suspension is then homogenized in ice-cold hypotonic buffer (5 mM Tris/HCl, 2 mM EDTA, pH 7.4) and the homogenate is spun for 10 minutes (4° C.) at 1,000 g.

[3] = cited from earlier work; for study participants who discontinued the study due to adverse events: Low-Pressure Glaucoma Treatment Study
[4] = tested on: nerve fiber layer of the retina (RNFL); conditions: topical 0.2% solution, 12 months, compared to timolol; cited from earlier work
[5] = tested on: retinal ganglion cells; conditions: nerve crush, acute and chronic ocular hypertension models; cited from earlier work

T1 sequence (P29274 whole entry): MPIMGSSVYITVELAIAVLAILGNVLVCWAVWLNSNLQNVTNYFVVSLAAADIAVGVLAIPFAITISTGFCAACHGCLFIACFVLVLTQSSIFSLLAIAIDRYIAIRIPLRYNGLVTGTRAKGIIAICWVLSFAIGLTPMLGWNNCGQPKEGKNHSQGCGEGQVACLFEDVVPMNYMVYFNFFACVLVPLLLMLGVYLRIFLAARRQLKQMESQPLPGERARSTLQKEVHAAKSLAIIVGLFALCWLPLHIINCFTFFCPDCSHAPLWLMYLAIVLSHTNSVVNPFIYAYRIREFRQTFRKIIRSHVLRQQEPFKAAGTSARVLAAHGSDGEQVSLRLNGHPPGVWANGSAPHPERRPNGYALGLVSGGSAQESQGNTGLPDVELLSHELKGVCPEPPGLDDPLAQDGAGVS

SMILES | percent of RGC protected from ischemic insult (FIG. 4) [1] | retinal thinning of inner retina (GCL, IPL) after high IOP (FIG. 2) ([1]; two drops before ischemia) | study participants who discontinued the study due to adverse events [3] [%] | other results
O=[N+]([O-])OC[C@H]1O[C@@H](n2cnc3c(NC4CCCC4)ncnc32)[C@H](O)[C@@H]1O [Compound A, ((2R,3S,4R,5R)-5-(6-(cyclopentylamino)-9H-purin-9-yl)-3,4-dihydroxytetrahydrofuran-2-yl)methyl nitrate] | 100% | blocked |  | percentage of protection across retinal layers (FIG. 3) ([1]; two drops before ischemia, relative to vehicle and brimonidine): greater relative to the vehicle, and slightly greater than the effects of brimonidine
O=[N+]([O-])OC[C@H]1O[C@@H](n2cnc3c(NC4CCOC4)ncnc32)[C@H](O)[C@@H]1O (stereo partly drawn) [Compound D, ((2R,3S,4R,5R)-3,4-dihydroxy-5-(6-(tetrahydrofuran-3-ylamino)-9H-purin-9-yl)tetrahydrofuran-2-yl)methyl nitrate] |  |  |  | A1 > A2A SELECTIVITY [KiA2(nm)/KiA1(nm)] [2]: >9434
Brc1c(NC2=NCCN2)ccc2nccnc12 [brimonidine] | around 80% | blocked | 28.3 | loss of visual field ([3]; 0.2% brimonidine, mean 30.0 month follow up, low pressure glaucoma, compared to timolol control): slow the loss of visual field; loss in thickness of the nerve fiber layer of the retina (RNFL) [4]: reduce the loss in thickness of the nerve fiber layer of the retina; RGC survival [5]: improved RGC survival
CC(C)(C)NC[C@H](O)COc1nsnc1N1CCOCC1 [timolol] |  |  | 11.4 | 
